Values quoted from earlier work in patent US20070237815A1 (priority 2006, published 2007).

Settings: in the elderly

half-life: approximately 72 hours
SMILES: NS(=O)(=O)c1cc(C2(O)NC(=O)c3ccccc32)ccc1Cl (stereo not shown) [chlorthalidone]
